Values joined by “and” are separate entries in the source; they are usually repeats but may differ in a detail not shown here. Identical values can stand only once.
Tests used:
Type in all cases: in vivo, rhesus monkey (Macaca mulatta)
[1] = tested on: retinal ganglion cells (RGC); assay: Brn3a immunohistochemistry retinal ganglion cell count, retinal ischemia/reperfusion (I/R) model; details: for average loss of RGC cells: I/R eyes vs contralateral OS eye, Day 63 after retinal I/R, oral 63 days; for protection on retinal ganglion cells: retinal I/R, 63 days of treatment; for average loss of RGC cells: test concentration or dose not given here
[2] = tested on: retinal ischemia/reperfusion (I/R) rhesus monkey model; assay: OCT mean thickness of 9-room retinal EDTRS area, retinal I/R model; details: change vs before modeling; note: test concentration or dose not given here
[3] = tested on: retinal ischemia/reperfusion (I/R) rhesus monkey model; assay: OCT Global mean thickness of retinal nerve fiber layer (RNFL), retinal I/R model; details: change vs before modeling; note: test concentration or dose not given here
[4] = tested on: sural nerve of rhesus monkeys with spontaneous diabetic peripheral neuropathy; assay: Nerve electromyogram: sural sensory nerve conduction velocity, spontaneous DPN model; details: for Change value, sural sensory nerve conduction velocity, Mean ± SD / D58 of administration, sural sensory nerve conduction velocity, Mean ± SD / Baseline value, sural sensory nerve conduction velocity, Mean ± SD: group mean over abnormal sural nerves; for Change value, sural sensory nerve conduction velocity, Mean ± SD / Change value, sural sensory nerve conduction velocity: D58 minus baseline; for D58 of administration, sural sensory nerve conduction velocity, Mean ± SD / D58 of administration, sural sensory nerve conduction velocity: Day 58 of administration; for Baseline value, sural sensory nerve conduction velocity, Mean ± SD: before administration; for Change value, sural sensory nerve conduction velocity / D58 of administration, sural sensory nerve conduction velocity: individual animal; for Change value, sural sensory nerve conduction velocity, Mean ± SD: test concentration or dose not given here; for Change value, sural sensory nerve conduction velocity: test concentration or dose not given here; for D58 of administration, sural sensory nerve conduction velocity, Mean ± SD: test concentration or dose not given here; for D58 of administration, sural sensory nerve conduction velocity: test concentration or dose not given here
[5] = tested on: rhesus monkeys with spontaneous diabetic peripheral neuropathy; assay: Nerve electromyogram: sensory nerve conduction velocity (SCV) of abnormal nerves, spontaneous DPN model; details: for Variation value, sensory nerve conduction velocity, Mean ± SD / Administration D58, sensory nerve conduction velocity, Mean ± SD / Baseline value, sensory nerve conduction velocity, Mean ± SD: group mean over all abnormal nerves; for Variation value, sensory nerve conduction velocity, Mean ± SD / Variation value, sensory nerve conduction velocity: D58 minus baseline; for Administration D58, sensory nerve conduction velocity, Mean ± SD / Administration D58, sensory nerve conduction velocity: Day 58 of administration; for Baseline value, sensory nerve conduction velocity, Mean ± SD / Baseline value, sensory nerve conduction velocity: before administration; for Variation value, sensory nerve conduction velocity / Administration D58, sensory nerve conduction velocity / Baseline value, sensory nerve conduction velocity: individual animal; for Administration D58, sensory nerve conduction velocity, Mean ± SD: test concentration or dose not given here; for Administration D58, sensory nerve conduction velocity: test concentration or dose not given here; for Variation value, sensory nerve conduction velocity, Mean ± SD: test concentration or dose not given here; for Variation value, sensory nerve conduction velocity: test concentration or dose not given here
[6] = OS (non-ischemic contralateral eye), Day 7
[7] = OS (non-ischemic contralateral eye), Day 21
[8] = OS (non-ischemic contralateral eye), Day 35
[9] = OS (non-ischemic contralateral eye), Day 63
[10] = spontaneous DPN, 58 days, P>0.05 vs placebo group

SMILES: COc1cc2nc(N3CCN(C(=O)C4COc5ccccc5O4)CC3)nc(N)c2cc1OC (racemic) [DOX, (RS)-2-[4-(2,3-Dihydro-1,4-benzodioxine-2-carbonyl)piperazin-1-yl]-6,7-dimethoxyquinazolin-4-amine]
- average loss of RGC cells [1]: 63.9±14.1%
- protection on retinal ganglion cells [1]: weak protection
- Δ mean thickness of the 9-room retinal EDTRS area ([2]; OD (IR injury), Day 7): −26 ± 0 μm
- Δ mean thickness of the 9-room retinal EDTRS area ([2]; OD (IR injury), Day 21): −48 ± 7 μm
- Δ mean thickness of the 9-room retinal EDTRS area ([2]; OD (IR injury), Day 35): −54 ± 10 μm
- Δ mean thickness of the 9-room retinal EDTRS area ([2]; OD (IR injury), Day 63): −58 ± 9 μm
- Δ mean thickness of the 9-room retinal EDTRS area [2, 6]: −5 ± 4 μm
- Δ mean thickness of the 9-room retinal EDTRS area [2, 7]: −3 ± 4 μm
- Δ mean thickness of the 9-room retinal EDTRS area [2, 8]: −3 ± 3 μm
- Δ mean thickness of the 9-room retinal EDTRS area [2, 9]: −3 ± 5 μm
- Δ Global mean thickness of retinal nerve fiber layer (RNFL) ([3]; OD (I/R injury), Day 35): −14 ± 4 μm
- Δ Global mean thickness of retinal nerve fiber layer (RNFL) ([3]; OD (I/R injury), Day 63): −21 ± 7 μm
- Δ Global mean thickness of retinal nerve fiber layer (RNFL) [3, 8]: 1 ± 2 μm
- Δ Global mean thickness of retinal nerve fiber layer (RNFL) [3, 9]: 1 ± 1 μm

SMILES: CC(/C=C1\SC(=S)N(CC(=O)O)C1=O)=C\c1ccccc1 [Epalrestat, epalrestat]
- Change value, sural sensory nerve conduction velocity, Mean ± SD [4]: 3.2 ± 3.9 m/s
- D58 of administration, sural sensory nerve conduction velocity, Mean ± SD [4]: 42.1 ± 2.1 m/s
- Baseline value, sural sensory nerve conduction velocity, Mean ± SD [4]: 38.9 ± 3.2 m/s
- Change value, sural sensory nerve conduction velocity ([4]; left sural nerve (abnormal)): 6.1 m/s and −1.1 m/s and 5.6 m/s
- D58 of administration, sural sensory nerve conduction velocity ([4]; left sural nerve (abnormal)): 41.4 m/s and 39.3 m/s and 45.2 m/s
- Change value, sural sensory nerve conduction velocity ([4]; right sural nerve (abnormal)): 9.3 m/s and 0.4 m/s and 2.8 m/s and −0.6 m/s
- D58 of administration, sural sensory nerve conduction velocity ([4]; right sural nerve (abnormal)): 43.9 m/s and 41.3 m/s and 39.6 m/s and 43.8 m/s
- average increase in sensory nerve conduction velocity (SCV) of abnormal sural nerves vs baseline ([4]; spontaneous DPN, 58 days of administration): 3.2±3.9 m/s
- nerves determined to be effectively improved in conduction velocity (of abnormal sural nerves) ([4]; spontaneous DPN, 58 days, effective = return to normal or increase by 2-5 m/s or more): 4/7
- Variation value, sensory nerve conduction velocity, Mean ± SD [5]: 4.2 ± 4.0 m/s
- Administration D58, sensory nerve conduction velocity, Mean ± SD [5]: 43.6 ± 7.3 m/s
- Baseline value, sensory nerve conduction velocity, Mean ± SD [5]: 38.8 ± 4.7 m/s
- Variation value, sensory nerve conduction velocity ([5]; left median nerve (abnormal)): 1.5 m/s and 8.6 m/s
- Administration D58, sensory nerve conduction velocity ([5]; left median nerve (abnormal)): 40 m/s and 51.2 m/s
- Baseline value, sensory nerve conduction velocity ([5]; left median nerve (abnormal)): 38.5 m/s and 42.6 m/s
- Variation value, sensory nerve conduction velocity ([5]; left sural nerve (abnormal)): −1.1 m/s and 5.6 m/s and 6.1 m/s
- Baseline value, sensory nerve conduction velocity ([5]; left sural nerve (abnormal)): 40.4 m/s and 39.6 m/s and 35.3 m/s
- Variation value, sensory nerve conduction velocity ([5]; left ulnar nerve (abnormal)): 8.3 m/s
- Administration D58, sensory nerve conduction velocity ([5]; left ulnar nerve (abnormal)): 50.7 m/s
- Baseline value, sensory nerve conduction velocity ([5]; left ulnar nerve (abnormal)): 42.4 m/s
- Variation value, sensory nerve conduction velocity ([5]; right median nerve (abnormal)): −0.7 m/s and 4.8 m/s
- Administration D58, sensory nerve conduction velocity ([5]; right median nerve (abnormal)): 25.1 m/s and 48.2 m/s
- Baseline value, sensory nerve conduction velocity ([5]; right median nerve (abnormal)): 25.8 m/s and 43.4 m/s
- Variation value, sensory nerve conduction velocity ([5]; right sural nerve (abnormal)): 0.4 m/s and 2.8 m/s and −0.6 m/s and 9.3 m/s
- Baseline value, sensory nerve conduction velocity ([5]; right sural nerve (abnormal)): 40.9 m/s and 36.8 m/s and 44.4 m/s and 34.6 m/s
- Variation value, sensory nerve conduction velocity ([5]; right ulnar nerve (abnormal)): 9.2 m/s
- Administration D58, sensory nerve conduction velocity ([5]; right ulnar nerve (abnormal)): 48.4 m/s
- Baseline value, sensory nerve conduction velocity ([5]; right ulnar nerve (abnormal)): 39.2 m/s
- mean increase in SCV of nerves with abnormal conduction velocities vs baseline ([5]; spontaneous DPN, administered for 58 days): 4.2±4.0 m/s

SMILES: CCCN[C@H]1CCc2nc(N)sc2C1 [PMP, (S)—N6-propyl-4,5,6,7-tetrahydro-1,3-benzothiazole-2,6-diamine]
- average loss of RGC cells [1]: 60.0%
- protection on retinal ganglion cells [1]: weak protection
- Change value, sural sensory nerve conduction velocity, Mean ± SD [4]: 0.9 ± 1.1 m/s
- D58 of administration, sural sensory nerve conduction velocity, Mean ± SD [4]: 40.8 ± 1.0 m/s
- Baseline value, sural sensory nerve conduction velocity, Mean ± SD [4]: 39.8 ± 1.0 m/s
- Change value, sural sensory nerve conduction velocity ([4]; left sural nerve (abnormal)): −0.3 m/s and 1.9 m/s
- D58 of administration, sural sensory nerve conduction velocity ([4]; left sural nerve (abnormal)): 40.2 m/s and 40.4 m/s
- Change value, sural sensory nerve conduction velocity ([4]; right sural nerve (abnormal)): −0.4 m/s and 2.1 m/s and 1.4 m/s
- D58 of administration, sural sensory nerve conduction velocity ([4]; right sural nerve (abnormal)): 39.6 m/s and 41.1 m/s and 42.6 m/s
- improvement in abnormal sural sensory nerve conduction velocity compared with the placebo group [4, 10]: no significant improvement
- Variation value, sensory nerve conduction velocity, Mean ± SD [5]: 0.4 ± 1.3 m/s
- Administration D58, sensory nerve conduction velocity, Mean ± SD [5]: 39.0 ± 5.1 m/s
- Baseline value, sensory nerve conduction velocity, Mean ± SD [5]: 38.6 ± 4.9 m/s
- Variation value, sensory nerve conduction velocity ([5]; left median nerve (abnormal)): −1.9 m/s and 0.8 m/s
- Administration D58, sensory nerve conduction velocity ([5]; left median nerve (abnormal)): 42.1 m/s and 40.0 m/s
- Baseline value, sensory nerve conduction velocity ([5]; left median nerve (abnormal)): 44.0 m/s and 39.2 m/s
- Variation value, sensory nerve conduction velocity ([5]; left sural nerve (abnormal)): −0.3 m/s and 1.9 m/s
- Baseline value, sensory nerve conduction velocity ([5]; left sural nerve (abnormal)): 40.5 m/s and 38.5 m/s
- Variation value, sensory nerve conduction velocity ([5]; right median nerve (abnormal)): −0.6 m/s
- Administration D58, sensory nerve conduction velocity ([5]; right median nerve (abnormal)): 25.6 m/s
- Baseline value, sensory nerve conduction velocity ([5]; right median nerve (abnormal)): 26.2 m/s
- Variation value, sensory nerve conduction velocity ([5]; right sural nerve (abnormal)): −0.4 m/s and 2.1 m/s and 1.4 m/s
- Baseline value, sensory nerve conduction velocity ([5]; right sural nerve (abnormal)): 40.0 m/s and 39.0 m/s and 41.2 m/s
- improvement in abnormal sensory nerve conduction velocity compared with the placebo group [5, 10]: no significant improvement
- Δ mean thickness of the 9-room retinal EDTRS area ([2]; OD (IR injury), Day 7): −50 ± 14 μm
- Δ mean thickness of the 9-room retinal EDTRS area ([2]; OD (IR injury), Day 21): −79 ± 15 μm
- Δ mean thickness of the 9-room retinal EDTRS area ([2]; OD (IR injury), Day 35): −85 ± 14 μm
- Δ mean thickness of the 9-room retinal EDTRS area ([2]; OD (IR injury), Day 63): −88 ± 18 μm
- Δ mean thickness of the 9-room retinal EDTRS area [2, 6]: −3 ± 5 μm
- Δ mean thickness of the 9-room retinal EDTRS area [2, 7]: −6 ± 3 μm
- Δ mean thickness of the 9-room retinal EDTRS area [2, 8]: −2 ± 4 μm
- Δ mean thickness of the 9-room retinal EDTRS area [2, 9]: 3 ± 3 μm
- Δ Global mean thickness of retinal nerve fiber layer (RNFL) ([3]; OD (I/R injury), Day 35): −41 ± 8 μm
- Δ Global mean thickness of retinal nerve fiber layer (RNFL) ([3]; OD (I/R injury), Day 63): −46 ± 3 μm
- Δ Global mean thickness of retinal nerve fiber layer (RNFL) [3, 8]: −2 ± 1 μm
- Δ Global mean thickness of retinal nerve fiber layer (RNFL) [3, 9]: 2 ± 1 μm
